# Tests used:
# [1] = biological target: T1, His6 PmFREP (PmFREP; PL5-1) (Penaeus monodon, UniProt A0A068LKH5, G184D); assay: inhibition of human red blood cell (type A) agglutination; type: cell-based; settings: 0.5 uM His6 PmFREP, 3% (v/v) red blood cells; multivalent avidity assay
# T1 construct: full length without native signal peptide; XEEL signal peptide (cleaved), N-terminal His6 tag kept; native part starts GTTERTDTA (from primer); Trichoplusia ni cells; disulfide-linked dimer of pentamers
# T1 sequence (A0A068LKH5 entry or part of it G184D): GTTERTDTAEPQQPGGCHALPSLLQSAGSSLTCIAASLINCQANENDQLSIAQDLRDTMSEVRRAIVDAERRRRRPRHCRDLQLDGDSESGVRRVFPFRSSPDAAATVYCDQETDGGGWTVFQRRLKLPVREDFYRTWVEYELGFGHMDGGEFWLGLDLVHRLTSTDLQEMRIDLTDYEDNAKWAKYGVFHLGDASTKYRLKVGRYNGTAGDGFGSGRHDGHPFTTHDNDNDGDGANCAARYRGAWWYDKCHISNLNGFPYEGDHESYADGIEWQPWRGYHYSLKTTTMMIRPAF
# [2] = biological target: T1, His6 PmFREP (PmFREP; PL5-1); assay: binding to GlcNAc affinity resin and competitive elution, western blot; settings: 100 mM monosaccharide, 20 mM HEPES pH 7.5, 150 mM NaCl, 10 mM CaCl2
concentration inhibiting agglutination [1],SMILES,"binding to GlcNAc affinity resin and competitive elution, western blot [2]"
~ 10 mM,"CC(=O)N[C@H]1C(O)O[C@H](CO)[C@H](O)[C@@H]1O (some centres unmarked) [GalNAc, N-acetylgalactosamine]",
5 mM,"CC(=O)N[C@H]1[C@H]([C@H](O)[C@H](O)CO)OC(O)(C(=O)O)C[C@@H]1O (some centres unmarked) [Neu5Ac, N-acetylneuraminic acid]",
~ 10 mM,CC(=O)N[C@H]1C(O)O[C@H](CO)[C@@H](O)[C@@H]1O (some centres unmarked) [GlcNAc],His6 PmFREP can bind GlcNAc as expected for fibrinogen-like lectin
1 mM,"CC(=O)N[C@@H]1C(O)O[C@H](CO)[C@@H](O)[C@@H]1O (some centres unmarked) [ManNAc, N-acetylmannosamine]",
